In patent publication US20140080162A1, “FLUORESCENCE LIFETIME EPIGENETICS ASSAYS” (ALMAC SCIENCES (SCOTLAND) LIMITED, priority 2011, published 2014):
Like-named read-outs stand apart in the source and are kept apart here.

Key:
PCAF [1] = biological target: T1, PCAF (Homo sapiens, UniProt Q92831); assay: PCAF FLT protease protection assay; type: biochemical; conditions: peptide 17 (1 μM), 125 nM PCAF, 2 h; read-out: KM (app) for AcCoA
T1 construct: purchased Enzo Life Sciences
Procedure: The dependence of the PCAF assay on AcCoA concentration was investigated. The assay was performed in a 384-well microplate at room temperature for 2 h in assay buffer (20 μl) using 125 nM PCAF and 1 μM peptide 17. Concentrations of AcCoA were varied from 25 μM-0.02 μM.
For AcCoA titrations, to wells containing varying concentrations of AcCoA (5 μl in assay buffer) was added 5 μl of peptide 17 in assay buffer followed by 10 μl of PCAF in assay buffer. […] Following a further 90 min incubation at room temperature, FLTs were measured. All measurements were performed in triplicate.

PCAF [2] = biological target: T1, PCAF; conditions: literature (Poux et al. 2002); read-out: reported KM for AcCoA; cited from earlier work
JHDM1A = biological target: T2, JHDM1A (Homo sapiens, UniProt Q9Y2K7); assay: JHDM1A FLT protease protection assay; type: biochemical; conditions: peptide 10 1 μM, JHDM1A 150 nM, 5 h; Endo-LysC up to 120 min
T2 construct: purchased BPS BioScience (via AMSBio, UK)
T2 sequence (Q9Y2K7 1-1162): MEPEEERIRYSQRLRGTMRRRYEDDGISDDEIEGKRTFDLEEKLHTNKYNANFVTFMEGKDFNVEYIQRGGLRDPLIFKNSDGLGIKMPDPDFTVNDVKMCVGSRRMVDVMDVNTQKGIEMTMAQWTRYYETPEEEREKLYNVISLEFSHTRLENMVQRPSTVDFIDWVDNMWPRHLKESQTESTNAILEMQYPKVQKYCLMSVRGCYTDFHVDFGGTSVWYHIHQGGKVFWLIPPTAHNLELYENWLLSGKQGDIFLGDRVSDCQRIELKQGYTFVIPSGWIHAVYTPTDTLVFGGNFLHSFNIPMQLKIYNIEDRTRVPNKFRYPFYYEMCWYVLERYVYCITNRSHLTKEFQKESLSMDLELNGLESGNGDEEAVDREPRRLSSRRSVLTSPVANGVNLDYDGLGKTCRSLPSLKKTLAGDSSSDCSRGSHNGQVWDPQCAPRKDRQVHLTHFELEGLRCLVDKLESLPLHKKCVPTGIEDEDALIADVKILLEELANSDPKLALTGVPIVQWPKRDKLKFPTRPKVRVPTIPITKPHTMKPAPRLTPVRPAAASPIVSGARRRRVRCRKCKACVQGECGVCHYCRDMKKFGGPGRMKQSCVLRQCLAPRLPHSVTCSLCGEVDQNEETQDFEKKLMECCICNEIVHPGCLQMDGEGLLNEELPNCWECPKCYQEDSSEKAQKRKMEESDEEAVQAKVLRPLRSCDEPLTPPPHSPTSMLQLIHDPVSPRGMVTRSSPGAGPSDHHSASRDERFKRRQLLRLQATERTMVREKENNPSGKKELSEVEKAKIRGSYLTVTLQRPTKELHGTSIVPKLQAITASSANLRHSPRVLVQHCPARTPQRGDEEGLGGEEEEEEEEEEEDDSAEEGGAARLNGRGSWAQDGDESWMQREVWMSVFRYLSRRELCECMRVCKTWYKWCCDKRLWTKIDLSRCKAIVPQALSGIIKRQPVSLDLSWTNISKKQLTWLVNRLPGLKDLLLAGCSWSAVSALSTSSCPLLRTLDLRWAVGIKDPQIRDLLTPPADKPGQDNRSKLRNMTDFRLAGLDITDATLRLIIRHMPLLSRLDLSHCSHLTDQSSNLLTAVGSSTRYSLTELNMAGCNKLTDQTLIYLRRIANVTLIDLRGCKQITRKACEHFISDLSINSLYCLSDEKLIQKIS
Procedure: The assay was performed in a 20 μl volume in a 384-well black microplate and contained peptide 10 (1 μM) and JHDM1A enzyme (150 nM) in assay buffer (50 mM Tris, pH 7.4, 100 μM sodium ascorbate, 10 μM ammonium ferrous sulfate, 100 μM α-ketoglutarate, 0.01% Tween-20). Control wells containing peptide only were also included. After 5 h incubation at room temperature, 10 μl of Endo-LysC (30 nM) was added to the wells and the plate incubated at room temperature for up to 120 min. FLTs were then measured in triplicate on a NanoTaurus plate reader.
Assays were performed in a 384-well microplate at room temperature with an assay volume of 20 μl per well. To wells containing recombinant JHDM1A enzyme in assay buffer (10 μl) was added peptide 10 in assay buffer (10 μl). Two sets of control wells containing peptide 10 only were included. The plate was shaken and then sealed with a coverslip. The final concentration of JHDM1A in the assay was 150 nM and 1 μM for peptide 10. After incubation at room temperature for 5 h, Endo-LysC (10 μl in assay buffer; final concentration 10 nM) was added to assay wells and one set of control wells. To the other set of control wells was added 10 μl of assay buffer. Following incubation at room temperature for 120 min, the microplate was centrifuged at 500 rpm for 1 min and FLTs measured. All measurements were performed in triplicate.

T1 sequence (Q92831 whole entry): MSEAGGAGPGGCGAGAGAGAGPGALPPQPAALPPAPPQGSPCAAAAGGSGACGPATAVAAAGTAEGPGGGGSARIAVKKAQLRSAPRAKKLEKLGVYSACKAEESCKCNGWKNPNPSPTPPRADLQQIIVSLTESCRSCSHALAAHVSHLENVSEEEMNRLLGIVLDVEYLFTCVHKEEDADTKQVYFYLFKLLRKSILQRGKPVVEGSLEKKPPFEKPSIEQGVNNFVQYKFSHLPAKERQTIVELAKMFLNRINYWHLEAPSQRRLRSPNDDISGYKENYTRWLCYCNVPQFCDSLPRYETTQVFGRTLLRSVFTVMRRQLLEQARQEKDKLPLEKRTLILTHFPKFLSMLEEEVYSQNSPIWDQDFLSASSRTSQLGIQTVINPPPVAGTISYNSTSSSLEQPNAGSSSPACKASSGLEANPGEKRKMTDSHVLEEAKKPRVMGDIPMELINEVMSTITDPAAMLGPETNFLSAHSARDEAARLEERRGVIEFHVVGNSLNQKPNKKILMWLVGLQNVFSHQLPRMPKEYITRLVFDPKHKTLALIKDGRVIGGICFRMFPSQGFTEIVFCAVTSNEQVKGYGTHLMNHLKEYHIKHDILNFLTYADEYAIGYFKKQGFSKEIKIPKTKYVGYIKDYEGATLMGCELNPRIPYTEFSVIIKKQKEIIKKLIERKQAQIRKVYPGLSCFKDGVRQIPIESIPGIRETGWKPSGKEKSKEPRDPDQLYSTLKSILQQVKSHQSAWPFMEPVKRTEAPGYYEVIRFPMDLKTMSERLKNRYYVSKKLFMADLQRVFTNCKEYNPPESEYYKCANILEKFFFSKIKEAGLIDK

Compound	Km (PCAF [1]) [µM]	Km (PCAF [2]) [µM]	increase in FLT following protease treatment after reaction with JHDM1A (JHDM1A)
CC(=O)SCCNC(=O)CCNC(=O)[C@H](O)C(C)(C)COP(=O)(O)OP(=O)(O)OC[C@H]1O[C@@H](n2cnc3c(N)ncnc32)[C@H](O)[C@@H]1OP(=O)(O)O [AcCoA, acetyl co-enzyme A]	1.2	1.6	–
9AA-ATGGVK^36(Me)K(Me)PHRYW-CONH2 [peptide 10]	–	–	over 1 ns
